Data from patent publication US10124078B2, “Lipid-based nanoparticles” (BOARD OF REGENTS OF THE UNIVERSITY OF HOUSTON SYSTEM, priority 2011, dated 2018).

Experiments:
Aβ plaques = molecular target: T1, Aβ plaques (Homo sapiens, UniProt P05067); assay: Ex vivo staining of mouse brain tissue sections (confocal fluorescence), with CG competition; format: binding, APP/PSEN1 transgenic mouse
T1 construct: from tissue; host or cells: brain (cortex and hippocampus) of 5 and 7 month old APP/PSEN1 transgenic mice
Procedure: The mice were engineered to progressively develop cortical and hippocampal plaques in an age-related manner similar to that observed in human AD pathology. Saggital sections (30 μm thick) from euthanized non-transgenic (control), 5, and 7 month old APP/PSEN1 mice were incubated in a 3 mM solution of the liposomes (concentration of Me-XO4 in the solution was 1 μM) for 2 h, at RT. This was followed by extensive washing with PBS to remove unbound liposomes. The stained tissues were mounted with […]® mounting media (Vector Laboratories, Inc., Burlingame, Calif.) to reduce background fluorescence and viewed under a confocal microscope.

[1] = molecular target: T2, cortical and hippocampal Aβ plaques (Homo sapiens, UniProt P05067); assay: In vivo delivery to cortical and hippocampal plaques after tail vein injection, confocal microscopy of brain sections; set-up: species or system APP/PSEN1 mice; details: 48 h after injection
T2 construct: from tissue; host or cells: brain (cortex and hippocampus) of 5 and 7 month old APP/PSEN1 transgenic mice
Procedure: 48 h following injection, the mice were euthanized and their brains sectioned for confocal light microscopic studies. Identical mice were injected with molecular/free methoxy-XO4 ligand to serve as a positive control, and with untargeted liposomes and saline as negative controls.

T2 sequence (P05067 672-713 limits assumed): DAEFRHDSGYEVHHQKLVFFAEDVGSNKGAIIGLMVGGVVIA
T1 sequence (P05067 672-713 limits assumed): as above

| SMILES | competition with Me-XO4-labeled liposomes for Aβ plaque deposits: fluorescence intensity and number of labeled plaques (Aβ plaques; 1 μM Me-XO4 and increasing concentrations of CG, cortex and hippocampus) | in vivo staining of plaques (fluorescence of brain sections) ([1]; 5 month old APP/PSEN1 mice) | in vivo staining of plaques (fluorescence of brain sections) ([1]; 7 month old APP/PSEN1 mice) | staining of Aβ plaque deposits on brain sections (Aβ plaques; 7 month old APP/PSEN1 mice, 30 μm sagittal sections, 1 μM Me-XO4, 2 h, RT) |
| --- | --- | --- | --- | --- |
| O=C(O)c1cc(/N=N/c2ccc(-c3ccc(/N=N/c4ccc(O)c(C(=O)O)c4)cc3)cc2)ccc1O [CG, Chrysamine G] | decrease in fluorescence intensity and the number of labeled plaques |  |  |  |
| COc1cc(/C=C/c2ccc(O)cc2)ccc1/C=C/c1ccc(O)cc1 [free methoxy-XO4 ligand, methoxy-XO4] |  | no noteworthy fluorescence | bright staining of both cortical and hippocampal plaques | same plaque deposition pattern was observed |
